Laboratory results published in US20240240160A1, “NOVEL OLIVETOL SYNTHASES FOR C[…]” (priority 2021, published 2024).

Assays:
[1] = system: QDX46968.1 from Anoectochilus roxburghii (SEQ ID NO:6); test: Product inhibition assay with butyryl-CoA and malonyl-CoA; type: biochemical; settings: for effect on formation of the tetraketide products (DVL+DVA) / effect on the triketide product propyl-DAL: increasing concentrations of the added product
Protocol: (§1) Assays were performed in a total volume of 50 μL in 100 mM Tris, pH 7.5 buffer containing 100 μM malonyl-CoA; 100 µM hexanoyl-CoA; a malonyl-CoA regenerating system comprising malonyl-CoA synthetase, excess malonate, and ATP; and excess purified olivetolic acid cyclase (OAC). The major product in this assay was olivetolic acid (OLA), and the triketide pentyl diacetic acid lactone (PDAL) was a side product. N-His-tagged purified enzymes were assayed under these assay conditions at enzyme concentrations and reaction times suitable for initial rate measurements of product formation. Reactions were initiated by addition of the PKS, then incubated for 30 min. Subsequently, 10 μL of reaction solution was removed and quenched into 15 volumes of 75% acetonitrile containing 0.1% formic acid and internal standards, then centrifuged to pellet denatured protein. Supernatants were transferred to fresh plates for LC-MS analysis of OLA, olivetol (OL), and PDAL as described in the Method section above.
(§2) Assays were performed as described in Example 3 with the following exception: instead of hexanoyl-CoA (C6), butyryl-CoA (C4) was used as substrate along with malonyl-CoA, in order to evaluate the inhibitory effect of the products with hexanoyl-CoA (i.e., OLA, OL and PDAL) on the activity of the enzymes. Accordingly, the products in this assay were the tetraketides divarinic acid (DVA) and divarinol (DVL) and the triketide propyl diacetic acid lactone (propyl-DAL) (see FIG. 4). The rates to form these products were measured in the presence of various concentrations of OLA, OL, and PDAL.

[2] = system: AAZ32094.1 from Oncidium hybrid cultivar (SEQ ID NO:2); test: as above; type: biochemical; settings: for effect on formation of the tetraketide products (DVL+DVA) / effect on the triketide product propyl-DAL: increasing concentrations of the added product
Protocol: as §1, §2

[3] = target: T1, OLS from C. sativa (Cannabis sativa, UniProt B1Q2B6); test: as above; type: biochemical; settings: for amount of DVA+DVL formed by the enzyme: at 1 mM of the added product, butyryl-CoA substrate; for enzyme activity: at 2 mM of the added product
T1 construct: made in house
T1 sequence (B1Q2B6 1-385): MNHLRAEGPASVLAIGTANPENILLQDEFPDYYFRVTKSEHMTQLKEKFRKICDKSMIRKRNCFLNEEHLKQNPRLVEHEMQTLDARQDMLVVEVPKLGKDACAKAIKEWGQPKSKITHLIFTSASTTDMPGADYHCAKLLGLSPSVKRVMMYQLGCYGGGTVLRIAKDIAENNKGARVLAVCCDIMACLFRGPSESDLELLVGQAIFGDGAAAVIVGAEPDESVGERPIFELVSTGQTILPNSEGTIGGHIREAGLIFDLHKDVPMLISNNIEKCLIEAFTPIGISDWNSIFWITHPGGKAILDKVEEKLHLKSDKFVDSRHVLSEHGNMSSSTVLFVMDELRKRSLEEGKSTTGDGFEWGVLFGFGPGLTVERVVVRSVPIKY
Protocol: as §1, §2

[4] = system: E. coli derivative strain which overexpressed an acyl-CoA synthetase (fadD) gene and expressed an olivetolic acid cyclase (OAC) from Cannabis sativa; test: OL, OLA and PDAL production in E. coli from plasmid-expressed Type-III PKS genes; type: cell-based; settings: gene on plasmid
Method in brief: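 E. coli strains expressing codon-optimized Type-III PKS genes (constitutive promoter) plus fadD overexpression and C. sativa OAC, grown at 32° C in P-minimal medium with 2% glucose, spiked with 4 mM hexanoic acid; harvested 3 h or 21 h post-spike. Butyl acetate extracts BSTFA-derivatized, OLA/OL/PDAL quantified by GC-FID.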

[5] = system: hexanoyl-CoA and malonyl-CoA; test: Specific activity assay of purified type-III polyketide synthases (OLA formation in presence of OAC); type: biochemical; settings: hexanoyl-CoA and malonyl-CoA in the presence of OAC; FIG. 3
Protocol: In this Example, the specific activities of three previously uncharacterized type-III polyketide synthases (PKS) to form olivetolic acid from hexanoyl-CoA and malonyl-CoA in the presence of olivetolic acid cyclase (OAC) were determined and compared to the olivetol synthase (OLS) from C. sativa.
as §1

[6] = system: E. coli derivative strain which overexpressed an acyl-CoA synthetase (fadD) gene and expressed an olivetolic acid cyclase (OAC) from Cannabis sativa; test: OL, OLA and PDAL production in E. coli from genome-integrated Type-III PKS genes; type: cell-based
Protocol: To test olivetolic acid production in E. coli, strains comprising a putative OLS gene and an OAC gene from C. sativa were inoculated in multi-well plates containing LB supplemented with 1% glucose and appropriate concentrations of antibiotics. After 6 hours of cultivation at 32° C., the cells were transferred with a 10% inoculum to a P-limited seed medium (see Table 2) and cultivated for ˜18 hours at 32° ° C. to reach an OD of 2.0-4.0. The cultures were transferred with a 20% inoculum in a P-minimal medium (see Table 3) supplemented with 2% glucose and appropriate concentrations of antibiotics. After 3 hours of cultivation at 32° C., the culture was spiked with 4 mM hexanoic acid (˜OD 1.5-2.0). The resulting cultures were then harvested at either 3 hours or 21 hours post hexanoic acid spike; a final OD was taken. 300 μL of butyl acetate containing 500 mg/L undecanoic acid was added to each multi-well plate. The plates were then vortexed for 30 minutes at 1500 rpm and centrifuged for 10 minutes at 4500 rpm. 50 μL of organic layer was transferred to a 96-well plate and derivatized with 50 μL of N,O-Bis(trimethylsilyl)trifluoroacetamide (BSTFA). The plate was then incubated at room temperature for 2 hours to allow for complete derivatization. The samples were then run on GC-FID for analytical quantification of olivetolic acid (OLA), olivetol (OL), PDAL, and hexanoic acid.
Olivetol, PDAL, OLA, HTAL, CBGA and combinations thereof were analyzed by LCMS or LCMS/MS methods using C18 reversed phase chromatography coupled to either EXACTIVE™ (ThermoFisher) or QTRAP® 4500 (Sciex) mass spectrometers.
For reversed phase LCMS, compounds were identified by their LC retention times and MRM transitions specific to the compounds. LCMS/MS analysis was conducted on a Shimadzu UHPLC system coupled with AB Sciex QTRAP 4500 mass spectrometer. Agilent Eclipse XDB C18 column (4.6×3.0 mm, 1.8 μm) was used with a 1-min gradient elution at 1 mL/min using water containing 0.1% ammonia acetate as mobile phase A and 90% methanol containing 0.1% ammonia acetate as mobile phase B. The LC column temperature was maintained at 45° C. Negative ionization mode was used for all the analytes.
Three of the type-III PKS genes from Example 1 were integrated under control of a constitutive promoter into an E. coli derivative strain which overexpressed an acyl-CoA synthetase (fadD) gene and expressed an olivetolic acid cyclase (OAC) from Cannabis sativa.
The in vivo assay procedure and analytical methods were performed as described above.

[7] = at 1 mM OLA, butyryl-CoA substrate
[8] = constitutive promoter, culture spiked with 4 mM hexanoic acid
[9] = constitutive promoter, 4 mM hexanoic acid

CCCCCc1cc(O)cc(O)c1 [OL, olivetol]
effect on formation of the tetraketide products (DVL+DVA) [1]: not inhibited
effect on the triketide product propyl-DAL [1]: decreased
effect on formation of the tetraketide products (DVL+DVA) [2]: not inhibited
effect on the triketide product propyl-DAL [2]: decreased
amount of DVA+DVL formed by the enzyme [3]: 2 µM
enzyme activity [3]: almost completely inactive

CCCCCc1cc(O)cc(O)c1C(=O)O [OLA, olivetolic acid]
amount of DVA+DVL formed [1, 7]: about 9 μM
amount of the triketide propyl-DAL [1, 7]: 3 to 5 µM
effect on formation of the tetraketide products (DVL+DVA) [1]: not inhibited, but rather stimulated
effect on the triketide product propyl-DAL [1]: inhibited
amount of DVA+DVL formed [2, 7]: about 9 μM
amount of the triketide propyl-DAL [2, 7]: 3 to 5 µM
effect on formation of the tetraketide products (DVL+DVA) [2]: not inhibited, but rather stimulated
effect on the triketide product propyl-DAL [2]: inhibited
amount of DVA+DVL formed by the enzyme [3]: 1.5 µM
enzyme activity [3]: almost completely inactive

B1: AAZ32094.1: Type-III PKS enzyme from Oncidium hybrid cultivar (protein)
chain: MPSLESVKNAKRAEGFASILAIGRANPEHFIEQSSYPDFFFRVTNSEHLVALKKKFQRICDKTAIRKRHFAWNEELLTTNSCFQTFMGNSLNVRQEFAIREIPKLGAQAANKAIQEWGQPKSRITHLIFCTTSGMDLPGADYQLTEILGLNPNVERVMLYQQGCFAGGTTLRLAKCLAESRKGARVLVVCAETTTVLFRAPSEEHQDDLVTQALFADGASALIVGADPDEAAHERASFIIVSTSQVLLPDSAGAIGGHVSEGGLLATLHRDVPQIVSKNVGKCLEEAFTPLGISDWNSIFWVPHPGGRAILDQIEERVGLKPEKLFISRHVLAEYGNMSSVCVHFALDEMRKRSAKEGKATTGEGLDWGVLFGFGPGLTVETVVLHSVPVTN
modifications: Oncidium hybrid cultivar; (1)..(392) AAZ32094.1
Total ([4]; OL + OLA + PDAL): 1781 µM
levels of OLA relative to the E. coli strain with OLS from C. sativa [4]: over two-fold
OL [4, 8]: 672 µM
OLA [4, 8]: 751 µM
PDAL [4, 8]: 358 µM
specific activity to form olivetolic acid compared with OLS from C. sativa [5]: higher specific activities
products produced by strains with chromosomally expressed enzyme [6]: produced olivetol (OL), olivetolic acid (OLA) and pentyl diacetic acid lactone (PDAL)
Total ([6]; OL + OLA + PDAL): 1038 µM
OL [6, 9]: 355 µM
OLA [6, 9]: 534 µM
PDAL [6, 9]: 149 µM
